Like-named read-outs stand apart in the source and are kept apart here. Where only a bound is given, the exact number is not on record here.

We go through 8 compounds from patent publication US4376119A, “Benzothiazine derivative” (priority 1981, dated 1983).

Series [1] deals with carrageenin-induced edema. The experiment in a line: Carrageenin-induced edema suppression in rats (anti-inflammatory activity). Format: in vivo, rat (male, Wistar strain). The settings on record: for ED50: read-out: Anti-inflammatory activity, ED50. (In general: The carrageenan paw model is a standard test of acute inflammation.)
Protocol: Anti-inflammatory activity was tested as follows: Male rats of the Wistar strain were used in groups of 7. A test compound was suspended in a 0.2% carboxymethyl cellulose solution and orally administered in a dose of 0.5 ml/100 g of body weight. […] Three hours after injection of carrageenin, each rat was sacrificed by ether. The feet of both hind legs were amputated at the ankle joint and weighed to detect the difference in weight between both feet. Then, the ability of the test compound to suppress the carrageenin-induced edema was evaluated by comparing the foot weight difference of the test group with that of a control group (consisting of rats to which the solvent alone was administered). Specifically, the rate of suppression of the edema was calculated according to the following equation: [formula]
Series [2] is described as follows: in vivo. The settings on record: mouse, in vivo, po. How it is done:
(§1) A test compound was suspended in a 0.2% carboxymethyl cellulose solution and orally administered in a dose of 0.1 ml/10 g of body weight. […] The LD50 value was calculated on the basis of the death rates on the final day.

In series [3] the test system is mice. The experiment in a line: in vivo. The settings on record: for Number of deaths/total number of test animals: p.o. How it is done:
as §1

Series [4] can be described thus: in vivo. Particulars: rat, in vivo, po. How it is done: (§2) The incidence of gastric disorders in rats was tested as follows: Eight-weeks-old male rats of the Wistar strain were used in groups of 5 to 7. After they were fasted for 18 hours or more, a test compound was administered orally. Six hours later, each rat was sacrificed by decapitation. The stomach was removed, filled with 10 ml of physiological saline, and then fixed in 5% formalin. After about 10 minutes, the stomach was incised through the greater curvature and the presence or absence of gastric disorders (in particular, erosion) was examined by visual observation. According to Litchfield-Wilcoxon's method, the dose causing erosion to occur in 50% of the test animals, UD50, was calculated on an all-or-none basis.

Series [5] relates to carrageenin-induced edema. The series is described as follows: Duration of anti-inflammatory activity (carrageenin edema, varied premedication time). Format: in vivo, rat (male, Wistar strain). Particulars: for Rate of suppression of edema: dose = ED50. An excerpt: The premedication time was defined as the time interval between the administration of a test compound and the injection of carrageenin.

The test system of series [6] is stomach (gastric disorders, erosion). The series is described as follows: Incidence of gastric disorders (erosion) in rats. The settings on record: Table 1; ratio of UD50 (gastric) to ED50 (edema). On the procedure: as §2
For series [7] the following is noted: cited from earlier work.
For series [8] the following is noted: Table 1; literature value: Pharmacometrics, 6(6), 1285 (1972) for indomethacin; Folia Pharmacologica Japonica, 69, 319 (1973) for diclofenac; cited from earlier work.
Setting [9] is: 3 h, Table 1, rat, oral, carrageenin edema.
Where [10] appears, read: Rattus norvegicus, po, 3 h, 1.25 mg/kg, p.o., read-out: Rate of suppression of edema.
Setting [11] is: Rattus norvegicus, po, 3 h, 2.5 mg/kg, p.o., read-out: Rate of suppression of edema.
Where [12] appears, read: Rattus norvegicus, po, 3 h, 5.0 mg/kg, p.o., read-out: Rate of suppression of edema.
Where [13] appears, read: Rattus norvegicus, po, 3 h, p.o., read-out: Rate of suppression of edema.
Setting [14] is: Rattus norvegicus, po, 3 h, read-out: Rate of suppression of edema.

As usually defined, the ED50 is the dose that gives a 50% effect, or the effect in half of the subjects. By LD50 is commonly meant the dose expected to kill half of the subjects tested. A lower LD50 goes with greater toxicity. Turning to `CN1C(C(=O)Nc2cccc(F)n2)C(=O)c2ccccc2S1(=O)=O` (stereo not shown) [Compound of formula (1), N-(6-fluoro-2-pyridyl)-3,4-dihydro-2-methyl-4-oxo-2H-1,2-benzothiazine-3-carboxamide 1,1-dioxide], in series [1] (setting [9]), the ED50 came to 7.5 mg/kg. Also, in series [1] (Rattus norvegicus, po, 3 h, 2.0 mg/kg, p.o., read-out: Rate of suppression of edema), the inhibition in vivo at 2 mg/kg came out at 20%. Also, in series [1] (Rattus norvegicus, po, 3 h, 4.0 mg/kg, p.o., read-out: Rate of suppression of edema), the inhibition in vivo at 4 mg/kg was 32%. For the same compound, in series [1] (Rattus norvegicus, po, 3 h, 8.0 mg/kg, p.o., read-out: Rate of suppression of edema), the inhibition in vivo at 8 mg/kg came out at 54.6%. Also, the inhibition in vivo at 16 mg/kg in series [1] (Rattus norvegicus, po, 3 h, 16.0 mg/kg, p.o., read-out: Rate of suppression of edema) is 66.6%. For the same compound, the “Anti-inflammatory activity (in words)” value in series [1] (summary of results) is “potent and long-lasting anti-inflammatory activity”. In addition, in series [2], the 50% lethal dose (LD50) at 168 h was above 5000 mg/kg. The “Number of deaths/total number of test animals” value in series [3] (3,000 mg/kg), in series [3] (4,000 mg/kg) and in series [3] (5,000 mg/kg) was 0/5 each time. For the same compound, the “Acute toxicity, LD50” value in series [3] (Table 1, mouse, oral, 7 days) is > 5,000 mg/kg. The “Degree of safety (in words)” value in series [3] (mouse, in vivo) was “very high degree of safety”. The compound also registered a TD50 at 6 h in series [4] of 297 mg/kg. In addition, in series [5] (from Table 3), the “Duration of anti-inflammatory activity (in words)” value is listed as “excellent in the duration of anti-inflammatory activity”. For the same compound, the “Rate of suppression of edema” value was 56.6% in series [5] (premedicated 1 hr.); 54.8% in series [5] (premedicated 3 hr.); 43.2% in series [5] (premedicated 6 hr.); 39.1% in series [5] (premedicated 12 hr.); 20.7% in series [5] (premedicated 24 hr.); 3.4% in series [5] (premedicated 48 hr.).

`CN1C(C(=O)Nc2nccs2)C(=O)c2ccccc2S1(=O)=O` (stereo not shown) [Sudoxicam, 3,4-dihydro-2-methyl-4-oxo-N-(2-thiazolyl)-2H-1,2-benzothiazine-3-carboxamide 1,1-dioxide]: the ED50 in series [1] (setting [9]) came to 5.1 mg/kg. For the same compound, in series [1] (setting [10]), the inhibition in vivo at 1.25 mg/kg is 14.9%. The inhibition in vivo at 2.5 mg/kg in series [1] (setting [11]) came out at 30.7%. In addition, in series [1] (setting [12]), the inhibition in vivo at 5 mg/kg worked out at 45.5%. Moreover, in series [1] (Rattus norvegicus, po, 3 h, 10.0 mg/kg, p.o., read-out: Rate of suppression of edema), the inhibition in vivo at 10 mg/kg was 69.3%. Moreover, the LD50 at 168 h in series [2] was 500 mg/kg. For the same compound, in series [2], the selectivity ratio worked out at 98. In addition, the “Number of deaths/total number of test animals” value was 0/5 in series [3] (200 mg/kg), 2/5 in series [3] (400 mg/kg), 4/5 in series [3] (800 mg/kg) and 5/5 in series [3] (1,000 mg/kg). Also, the “Therapeutic index and safety margin (in words)” value in series [3] (from Table 1) is “superior in therapeutic index and safety margin to indomethacin and diclofenac”. Besides, the “Therapeutic index, UD50/ED50” value in series [6] is 2.3. In series [4], this compound came in with a TD50 at 6 h of 11.8 mg/kg. For the same compound, the “Anti-inflammatory activity (in words)” value in series [7] (prior art) is “potent and long-lasting anti-inflammatory activity”. In series [7] (prior art), the “Degree of toxicity and incidence of gastric disorders (in words)” value (from here on “Degree … of gastric disorders (in words)”) was “not appreciably different from those of indomethacin and diclofenac”. Moreover, the “Rate of suppression of edema” value in series [5] (premedicated 1 hr.) is 49.8%; in series [5] (premedicated 3 hr.), 52.1%; in series [5] (premedicated 6 hr.) it was 39.5%; in series [5] (premedicated 12 hr.) it was 31.6%; in series [5] (premedicated 24 hr.) it was 10.4%; in series [5] (premedicated 48 hr.), -2.4%.

On to `CN1C(C(=O)Nc2ccc(Cl)cn2)C(=O)c2ccccc2S1(=O)=O` (stereo not shown) [5-Chloro-2-pyridyl compound, N-(5-chloro-2-pyridyl)-3,4-dihydro-2-methyl-4-oxo-2H-1,2-benzothiazine-3-carboxamide 1,1-dioxide], for which the inhibition in vivo at 6.5 mg/kg in series [1] (setting [13]) turned out to be 18.9%.

With `Cc1cc(NC(=O)C2C(=O)c3ccccc3S(=O)(=O)N2C)no1` (stereo not shown) [Isoxicam, 3,4-dihydro-2-methyl-N-(5-methyl-3-isoxazolyl)-4-oxo-2H-1,2-benzothiazine-3-carboxamide 1,1-dioxide], in series [1] (setting [9]), the ED50 is 15.5 mg/kg. Further, in series [1] (Rattus norvegicus, po, 3 h, 3.75 mg/kg, p.o., read-out: Rate of suppression of edema), the inhibition in vivo at 3.75 mg/kg came out at 7.5%. The inhibition in vivo at 7.5 mg/kg in series [1] (Rattus norvegicus, po, 3 h, 7.5 mg/kg, p.o., read-out: Rate of suppression of edema) was 32.3%. Besides, in series [1] (Rattus norvegicus, po, 3 h, 15.0 mg/kg, p.o., read-out: Rate of suppression of edema), the inhibition in vivo at 15 mg/kg was determined as 46.8%. The inhibition in vivo at 30 mg/kg in series [1] (Rattus norvegicus, po, 3 h, 30.0 mg/kg, p.o., read-out: Rate of suppression of edema) came out at 69.4%. This compound gave an LD50 at 168 h in series [2] of 5000 mg/kg. In series [4], the TD50 at 6 h is 250 mg/kg. For the same compound, the “Degree … of gastric disorders (in words)” value in series [7] (in vivo) is “relatively low”. The “Anti-inflammatory activity (in words)” value in series [7] (prior art) was “lower than that of Piroxicam and Sudoxicam”. For the same compound, the “Rate of suppression of edema” value in series [5] (premedicated 1 hr.) worked out at 54.2%; in series [5] (premedicated 3 hr.), 54.2%; in series [5] (premedicated 6 hr.) it was 45.8%; in series [5] (premedicated 12 hr.) it was 36.3%; in series [5] (premedicated 24 hr.), 19.5%; in series [5] (premedicated 48 hr.), 1.1%.

For the compound `CN1C(C(=O)Nc2ccccn2)C(=O)c2ccccc2S1(=O)=O` (stereo not shown) [Piroxicam, 3,4-dihydro-2-methyl-4-oxo-N-(2-pyridyl)-2H-1,2-benzothiazine-3-carboxamide 1,1-dioxide], the ED50 in series [1] (setting [9]) worked out at 1.75 mg/kg. In series [1] (Rattus norvegicus, po, 3 h, 0.625 mg/kg, p.o., read-out: Rate of suppression of edema), the inhibition in vivo at 0.625 mg/kg came to 26.9%. In series [1] (setting [10]), the inhibition in vivo at 1.25 mg/kg came out at 42.5%. Moreover, the inhibition in vivo at 2.5 mg/kg in series [1] (setting [11]) turned out to be 57%. Moreover, the inhibition in vivo at 5 mg/kg in series [1] (setting [12]) was found to be 76.4%. In series [2], this compound showed an LD50 at 168 h of 490 mg/kg. Moreover, the TD50 at 6 h in series [4] was 8.2 mg/kg. For the same compound, in series [7] (in vivo), the “Degree … of gastric disorders (in words)” value was “not appreciably different from those of indomethacin and diclofenac”. Also, in series [7] (prior art), the “Anti-inflammatory activity (in words)” value was “potent and long-lasting anti-inflammatory activity”. Further, the “Rate of suppression of edema” value worked out at 57.6% in series [5] (premedicated 1 hr.); 55.3% in series [5] (premedicated 3 hr.); 40.0% in series [5] (premedicated 6 hr.); 38.8% in series [5] (premedicated 12 hr.); 15.3% in series [5] (premedicated 24 hr.); 1.7% in series [5] (premedicated 48 hr.).

As for `O=C(O)Cc1ccccc1Nc1c(Cl)cccc1Cl` [Diclofenac, diclofenac], the ED50 in series [1] (Rattus norvegicus, po, 3 h) was 5 mg/kg. Also, in series [1] (setting [14]), the inhibition in vivo at 2.5 mg/kg is 29.7%. In series [1] (setting [14]), the inhibition in vivo at 5 mg/kg is 48.5%. In addition, the inhibition in vivo at 10 mg/kg in series [1] (setting [14]) turned out to be 69.3%. This compound gave a TD50 at 6 h in series [4] of 9.2 mg/kg. The “Rate of suppression of edema” value in series [5] (premedicated 1 hr.) is given as 45.9%; in series [5] (premedicated 3 hr.) it was 24.7%; in series [5] (premedicated 6 hr.) it was 17.6%; in series [5] (premedicated 24 hr.) it was -1.2%.

Consider `Cc1cccc(NC(=O)C2C(=O)c3ccccc3S(=O)(=O)N2C)n1` (stereo not shown) [6-Methyl-2-pyridyl compound, N-(6-methyl-2-pyridyl)-3,4-dihydro-2-methyl-4-oxo-2H-1,2-benzothiazine-3-carboxamide 1,1-dioxide], for which, in series [1] (setting [9]), the ED50 came to 4.5 mg/kg. In addition, the inhibition in vivo at 1.75 mg/kg in series [1] (Rattus norvegicus, po, 3 h, 1.75 mg/kg, p.o., read-out: Rate of suppression of edema) was 27.4%. Besides, the inhibition in vivo at 6.5 mg/kg in series [1] (setting [13]) is 58.9%. In series [4], this compound returned a TD50 at 6 h of 5.1 mg/kg.

On to `COc1ccc2c(c1)c(CC(=O)O)c(C)n2C(=O)c1ccc(Cl)cc1` [Indomethacin, indomethacin], for which the ED50 in series [1] (Rattus norvegicus, po, 3 h) came out at 4.6 mg/kg. Further, the inhibition in vivo at 1.25 mg/kg in series [1] (setting [14]) stood at 19.3%. Also, the inhibition in vivo at 2.5 mg/kg in series [1] (setting [14]) came to 22.8%. Moreover, the inhibition in vivo at 5 mg/kg in series [1] (setting [14]) was 57.4%. The inhibition in vivo at 10 mg/kg in series [1] (setting [14]) was determined as 73.3%. Also, the selectivity ratio in series [2] is 3.7. The “Acute toxicity, LD50” value in series [8] was 17 mg/kg. Further, the “Therapeutic index, UD50/ED50” value in series [6] is 1.2. In addition, in series [4], the TD50 at 6 h was determined as 5.4 mg/kg. The “Rate of suppression of edema” value in series [5] (premedicated 1 hr.) is given as 49.4%; in series [5] (premedicated 3 hr.) it was 57.6%; in series [5] (premedicated 6 hr.) it was 29.4%; in series [5] (premedicated 12 hr.), 18.8%; in series [5] (premedicated 24 hr.), -3.5%.
